{
  "source": "paper PMC12325145",
  "about": "“Preclinical evaluation of [^68Ga]Ga-AAZTA-FAPI-46: a novel PET tracer for targeting fibroblast activation protein (FAP)” (EJNMMI Radiopharmacy and Chemistry, 2025)",
  "molecular_target": "T1, fibroblast activation protein (FAP) (Mus musculus, UniProt P97321)",
  "T1 construct": "murine FAP stably expressed in HEK293 cells (pCMV6-Kan/Neo-mFAP, Origene MC206606)",
  "T1 sequence (P97321 1-761)": "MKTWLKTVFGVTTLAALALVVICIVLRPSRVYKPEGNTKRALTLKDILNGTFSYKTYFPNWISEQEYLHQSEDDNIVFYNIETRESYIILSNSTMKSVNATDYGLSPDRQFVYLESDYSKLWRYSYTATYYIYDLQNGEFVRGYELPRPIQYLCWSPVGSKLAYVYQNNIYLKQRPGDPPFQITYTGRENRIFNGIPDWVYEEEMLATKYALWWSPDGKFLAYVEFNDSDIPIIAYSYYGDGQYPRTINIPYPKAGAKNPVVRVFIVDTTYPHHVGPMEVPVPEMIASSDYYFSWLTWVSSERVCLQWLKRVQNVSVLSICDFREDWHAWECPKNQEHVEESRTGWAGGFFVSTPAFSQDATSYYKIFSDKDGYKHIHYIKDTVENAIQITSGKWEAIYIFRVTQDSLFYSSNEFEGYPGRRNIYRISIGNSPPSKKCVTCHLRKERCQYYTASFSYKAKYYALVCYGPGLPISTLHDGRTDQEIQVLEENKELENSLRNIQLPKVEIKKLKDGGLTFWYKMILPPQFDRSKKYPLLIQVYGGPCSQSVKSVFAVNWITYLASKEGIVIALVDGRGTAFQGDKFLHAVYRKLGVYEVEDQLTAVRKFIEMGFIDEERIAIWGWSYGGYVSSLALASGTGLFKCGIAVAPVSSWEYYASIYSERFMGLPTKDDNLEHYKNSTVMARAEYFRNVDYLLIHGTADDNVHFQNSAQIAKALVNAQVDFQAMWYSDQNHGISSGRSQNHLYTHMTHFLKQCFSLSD",
  "assay": "radioligand competition with unlabelled tracer on HEK293T-FAP cells, […] °C, […] h",
  "type": "cell-based",
  "data": [
    {"smiles": "CN(CCCN1CCN(C(=O)CCCCC2(N(CC(=O)[O-])CC(=O)[O-])CN(CC(=O)[O-])CCN(CC(=O)[O-])C2)CC1)c1ccc2nccc(C(=O)NCC(=O)N3CC(F)(F)C[C@@H]3C#N)c2c1.[68Ga+3]", "note": "[[^68Ga]Ga-AAZTA-FAPI-46]", "values": [
      {"measurement": "IC50", "result": "4.61 ± 0.21", "unit": "nM"}
    ]}
  ]
}
